From article PMC8924334, “Synthesis of [^11C]carbonyl-labeled cyclohexyl (5-(2-acetamidobenzo[d]thiazol-6-yl)-2-methylpyridin-3-yl)carbamate ([^11C-carbonyl]PK68) as a potential PET tracer for receptor-interacting protein 1 kinase” (EJNMMI Radiopharmacy and Chemistry, 2022)

Target: T1, RIPK1 (Mus musculus, UniProt Q60855)
T1 construct: RIPK1 in liver of healthy mouse would exist with nonnegligible level; from tissue; host or cells: living healthy mice; volumes of interest on heart, lung, liver, kidney, small intestine, muscle and brain
T1 sequence (Q60855 1-656): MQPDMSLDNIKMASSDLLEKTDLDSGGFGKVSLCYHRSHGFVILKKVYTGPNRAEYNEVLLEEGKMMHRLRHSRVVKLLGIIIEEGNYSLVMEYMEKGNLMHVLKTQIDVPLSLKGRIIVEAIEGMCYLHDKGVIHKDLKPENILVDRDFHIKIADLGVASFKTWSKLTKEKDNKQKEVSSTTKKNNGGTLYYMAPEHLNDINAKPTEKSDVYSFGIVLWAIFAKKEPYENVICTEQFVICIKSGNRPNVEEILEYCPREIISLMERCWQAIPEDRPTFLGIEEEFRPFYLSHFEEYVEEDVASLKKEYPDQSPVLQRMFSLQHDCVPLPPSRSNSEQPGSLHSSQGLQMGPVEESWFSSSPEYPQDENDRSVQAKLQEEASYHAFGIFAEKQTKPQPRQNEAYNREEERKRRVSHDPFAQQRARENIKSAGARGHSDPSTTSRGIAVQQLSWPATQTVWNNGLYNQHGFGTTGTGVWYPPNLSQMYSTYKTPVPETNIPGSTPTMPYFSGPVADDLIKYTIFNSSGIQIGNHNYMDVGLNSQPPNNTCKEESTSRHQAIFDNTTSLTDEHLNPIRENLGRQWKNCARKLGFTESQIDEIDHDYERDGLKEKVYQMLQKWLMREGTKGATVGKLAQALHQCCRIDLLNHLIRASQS
Experiment: Small-animal PET imaging, baseline and blocking with unlabeled PK68
Type: in vivo, mice
Description: Each mouse was anesthetized using 1.5% (v/v) isoflurane, and an intravenous catheter was inserted into its tail vein. The mice (10–14 weeks old, 48.1 ± 7.4 g) were subsequently maintained under anesthesia and secured in a custom-designed chamber placed in the center of a small-animal PET scanner (Inveon, Siemens Healthineers, Erlangen, Germany). After adjusting the target position for scanning, dynamic emission scans (in three-dimensional list mode) were performed for 60 min (1 min × 4 frames, 2 min × 8 frames, and 5 min × 8 frames). [^11C]PK68 (11–16 MBq) was injected via a tail vein catheter. The body temperature of each mouse was maintained at 37 °C using a heated (40 °C) water circulation system (T/Pump TP401, Gaymar Industries, NY, USA) during the PET scan. For the blocking study, the mice were pretreated with unlabeled PK68 (1 mg/kg) just before the injection of [^11C]PK68. The obtained dynamic PET images (0.6 mm slice thickness) were reconstructed by filtered-back projection using a Hanning filter, with a Nyquist cutoff of 0.5 cycles per pixel. The time–activity curves (TACs) of [^11C]PK68 were acquired using PMOD software (version 3.4, PMOD Technology, Zurich, Switzerland) from the volumes of interest, which were manually mapped onto the heart, lung, liver, kidney, small-intestine (part of duodenum), muscle, and brain. The radioactivity was decay-corrected to the injection time and is expressed as a standardized uptake value (SUV), normalized for injected radioactivity and body weight. The SUV was calculated according to the following formula: SUV = (radioactivity per milliliter tissue/injected radioactivity) × body weight (g). We also calculated the area under the curve (AUC) using TACs from 0 to 60 min.

[1] = blocking with unlabeled PK68 1 mg/kg i.v.

peak radioactivity in kidney (baseline): 2.7 SUV
peak radioactivity in liver (baseline): 4.8 SUV
uptake of radioactivity by the brain (baseline mice, PET, i.v.): < 0.3 SUV
time of peak radioactivity in kidney (baseline, after injection): 1.5 min
time of peak radioactivity in liver (baseline, after injection): 2.5 min
peak radioactivity in kidneys [1]: 2.3 SUV
peak radioactivity in liver [1]: 4.2 SUV
specific binding for RIPK1 in PET imaging (healthy mice): no obvious specific binding
difference in AUC (0-60 min) in liver and kidney, baseline vs blocking (n = 2 per group): no significant differences
reduction of maximum SUV in liver and kidney by blocking (unlabeled PK68 1 mg/kg i.v.): roughly 15%
SMILES: Cc1ncc(-c2ccc3nc(N[11C](C)=O)sc3c2)cc1NC(=O)OC1CCCCC1 [[^11C]PK68, Cyclohexyl (5-(2-[^11C-carbonyl]acetamidobenzo[d]thiazol-6-yl)-2-methylpyridin-3-yl)carbamate]
